# Marks after values point to notes of the source that are not given here.
# What was measured:
# [1] = test system: rats; conditions: 2020, cited from earlier work
# [2] = test system: Whole rat embryos; set-up: method as in Posobiec et al., 2021; conditions: exposure GD 9-11; concentrations approx. 2 times plasma concentration at MRHD; ref Posobiec et al., 2021; cited from earlier work
# [3] = test system: SWV mice; test: DTG-NTD susceptibility, embryo phenotyping on GD 9.5, SWV dams; type: in vivo, mouse
# Description: (§1) Breeding colonies and experimental mice were housed in Thoren micro-isolator cages with autoclaved corncob bedding and maintained on a 12-h light-dark cycle in climate-controlled AAALAC-accredited animal facilities at Creighton University. Mice were given ad libitum access to autoclaved water and pelleted irradiated rodent chow. For timed matings, nulliparous female mice were placed with a male overnight (1 male:2-3 females). The presence of a vaginal plug the next morning was considered GD 0.5. Plugged females were weighed, placed into a separate cage, and randomly assigned to a treatment group. All animal procedures were performed in accordance with the Public Health Service (PHS) policy on Humane Care and Use of Laboratory Animals and approved by the Creighton University Institutional Animal Care and Use Committee (IACUC).
# (§2) Dolutegravir (CAS 1051375-16-6, GSK1349572) was purchased from MedKoo Biosciences (Morrisville, NC). Pregnant mice were dosed with vehicle (dimethylsulfoxide: Solutol®: 50 mM N-methylglucamine in 3% mannitol [1:1:8, v:w:v]) ([Moss et al., 2015]) or DTG (500 mg/kg or 750 mg/kg) by daily oral gavage beginning on GD 0.5 and continuing until the day of sacrifice (GD 9.5). All treatments were administered in a volume of 0.1 mL/10 g bodyweight (bwt).
# (§3) The SWV and LM/Bc breeding colonies have been maintained on Envigo Rodent Chow #8904 (a soy protein-based irradiated diet) for >20 years. C3H/HeJ and C57BL/6J mice (6–10 weeks old) were immediately placed on Envigo #8904 upon arrival at Creighton University and were maintained on this diet for a minimum of 1 month prior to analysis of basal plasma and urine cations. The National Research Council (NRC) estimate for the minimum Mg^2+ requirement in adult mice is […] of diet (0.05%). Magnesium in standard rodent diets ranges between […]; the Envigo #8904 soy diet contains .3% Mg^2+ by weight ([…] the NRC requirement) and was therefore considered a ‘high’ Mg^2+ diet. Sources of Mg^2+ in the soy diet include magnesium oxide (∼20%) and Mg^2+ found naturally in grain ingredients (∼80%); it was therefore not possible to remove Mg^2+ to create a soy-based version that was Mg^2+ deficient. To test the hypothesis that low maternal plasma Mg^2+ prior to conception would increase susceptibility to DTG-induced NTDs, it was necessary to switch to casein-based purified ingredient diets with defined levels of Mg^2+ added back. The following casein-based purified ingredient diets were selected as experimental diets: TD.120,574 high Mg^2+ diet (.3% Mg^2+ oxide added to match the .3% high Mg^2+ soy-based diet); TD.98341 control Mg^2+ diet with 0.05% Mg oxide added back to match the NRC requirement; and TD.93106 Mg^2+-deficient diet (<.003%, no Mg^2+ added back). The purified casein diets met or exceeded the NRC requirements for all other minerals and vitamins, including folic acid (Supplementary Table S1: Diet Comparison). Thus, the 4 experimental diets were as follows: 1) high Mg^2+ (.3%) soy diet; 2) high Mg^2+ ([…]) casein diet; 3) control Mg^2+ (.05%) casein diet; and 4) deficient Mg^2+ (<.003%) casein diet. […] Our initial DTG teratology studies were performed in mice on the high Mg^2+ soy diet. However, our objective in the second set of experiments was to reduce pre-conception plasma Mg^2+ levels prior to DTG exposure. To accomplish this objective, weaned female mice were placed on either the high Mg^2+ casein diet or one of the 2 casein-based experimental diets with reduced Mg^2+ (control or deficient) for a minimum of 2 weeks. After this minimum period of acclimation to the experimental casein-based diets, blood and urine samples were collected for Inductively Coupled Plasma Mass Spectrometry (ICP-MS) determination of Mg^2+ (and other cations).
# (§4) Pregnant dams were anesthetized with isoflurane and sacrificed by cervical dislocation on GD 9.5. […]
# [4] = test system: C3H/HeJ mice; set-up: method as in Bade et al., 2021; conditions: 50 mg/kg/d DTG oral gavage from GD 0.5; 1 NTD affected pup in 17 litters; ref Bade et al., 2021; cited from earlier work
# [5] = test system: C57BL/6J mice; test: DTG-NTD susceptibility, embryo phenotyping on GD 9.5, C57BL/6J dams; type: in vivo, mouse
# Description: as §1, §2, §3, §4
# [6] = test system: rabbits; conditions: 2020, cited from earlier work
# [7] = test system: FOLR1; set-up: method as in Cabrera et al., 2019; conditions: human placental trophoblast cells; ref Cabrera et al., 2019; cited from earlier work
# [8] = preclinical studies, ref Stanislaus et al.
# [9] = Mg2+-deficient (<0.003%) casein diet, DTG750
# [10] = high Mg2+ (0.3%) soy diet, DTG 750 mg/kg/d oral GD 0.5-GD 9.5
# [11] = high Mg2+ (0.3%) soy diet, DTG 750 mg/kg/d oral GD 0.5-GD 9.5, average % (SD)
# [12] = high Mg2+ (0.3%) soy diet, DTG 750 mg/kg/d oral GD 0.5-GD 9.5, mean (SD)
# [13] = high Mg2+ (0.3%) soy diet, DTG 750 mg/kg/d oral GD 0.5-GD 9.5, mean (SD) per litter
smiles,measurement,setting,value
"C[C@@H]1CCO[C@H]2Cn3cc(C(=O)NCc4ccc(F)cc4F)c(=O)c(O)c3C(=O)N12 [DTG, Dolutegravir]",DTG-related maternal or developmental toxicity,"[1]; oral doses up to 1000 mg/kg/d, GD 6 to GD 17, ref Stanislaus et al.",no significant evidence
same,NOAEL,[1]; [8],1000 mg/kg/day
same,developmental toxicity or NTDs,[2],no developmental toxicity or NTDs were observed
same,NTD-affected litters,[3]; [9],75%
same,NTD-affected litters / litters examined,[3]; [9],6/8
same,NTDs per affected litter,[3]; [9],1-4
same,total NTDs,[3]; [9],11
same,Affected litters %,[3]; [10],7.7%
same,"Dev delay/implants, index value",[3]; [11],2.0% (3.19)
same,"NTDs/embryos, index value",[3]; [11],1.8% (6.40)
same,"NTDs/implants, index value",[3]; [11],1.6% (5.94)
same,"Resorptions/implants, index value",[3]; [11],5.0% (7.62)
same,Implants per litter,[3]; [12],13.15 (2.12)^**
same,Resorptions per litter,[3]; [12],0.62 (0.87)
same,Dev. delayed,[3]; [13],0.31 (0.48)
same,NTDs,[3]; [13],0.23 (0.83)
same,Total viable embryos,[3]; [13],12.54 (2.37)^**
same,NTD-affected litters / litters examined,"[3]; high Mg2+ soy diet, DTG750",1/13
same,total pups with exencephaly,"[3]; high Mg2+ soy diet, DTG750",3
same,NTD-affected litters,[4],5.8%
same,Affected litters %,[5]; [10],0.0%
same,"Dev delay/implants, index value",[5]; [11],1.9% (4.15)
same,"NTDs/embryos, index value",[5]; [11],0.0% (0.00)
same,"NTDs/implants, index value",[5]; [11],0.0% (0.00)
same,"Resorptions/implants, index value",[5]; [11],5.3% (9.30)
same,Implants per litter,[5]; [12],9.80 (1.48)
same,Resorptions per litter,[5]; [12],0.50 (0.85)
same,Dev. delayed,[5]; [13],0.20 (0.42)
same,NTDs,[5]; [13],0.00 (0.00)
same,Total viable embryos,[5]; [13],9.30 (1.77)
same,NTDs observed,"[5]; high Mg2+ soy diet, DTG750, n = 10 litters",No NTDs
same,DTG-related maternal or developmental toxicity,"[6]; oral doses up to 1000 mg/kg/d, GD 6 to GD 18, ref Stanislaus et al.",no significant evidence
same,NOAEL,[6]; [8],1000 mg/kg/day
same,FOLR1-mediated uptake of folic acid,[7],partially inhibited

# Source: publication PMC10292217, “Gene-nutrient interactions that impact magnesium homeostasis increase risk for neural tube defects in mice exposed to dolutegravir” (Frontiers in Cell and Developmental Biology, 2023)
